Data taken from PMC9515143, “Phosphorylation of Jhd2 by the Ras-cAMP-PKA(Tpk2) pathway regulates histone modifications and autophagy” (Nature Communications, 2022).

Legend:
Assay type in all cases: cell-based, budding yeast (Saccharomyces cerevisiae)
Jhd2 phosphorylation = Jhd2 phosphorylation in cells at different glucose concentrations; conditions: 0.05%, 0.5%, 2% glucose, WT, Jhd2-S321A, S340A and tpk2Δ
Protocol: To examine the effect of glucose on histone modifications, yeast cells were grown in 2% glucose-containing YPD (Yeast Extract Peptone Dextrose) medium until OD600 of 0.7–1.0. Cells were then collected, washed and resuspended in YP medium for 3 hr followed by treatment with different concentrations of glucose for 0.5 hr. For 1NM-PP1 (MCE, HY-13804) treatment, cells were grown in 2% YPD until OD600 of 0.7–1.0. Cells were then treated with 25 μM 1NM-PP1 for 0.5 hr. For FBP and pyruvate treatment, cells were pre-treated with Zymolase (Mpbio, 08320921) to increase the permeability. In brief, cells were grown in YPD medium until OD600 of 0.7–1.0, centrifuged and resuspended in 1 ml SB buffer (100 mM Sorbitol, 20 mM Tris pH 7.4). 10 μl Zymolase was then added and incubated at 30 °C for 15 min. The spheroplasts were washed and cultured in YPD medium containing different concentrations of FBP and pyruvate for 3 hr.
Cells were grown in 5 ml YPD or selective medium until OD600 of 0.7–1.0. Cells were harvested and lysed in alkaline lysis buffer (2 M NaOH, 8% 2-mercaptoethanol). After centrifugation, the protein pellet was resuspended in 150 μl 2×SDS-sample buffer. Protein samples were separated by 8–15% SDS-PAGE and transferred to PVDF membrane. […] The protein bands were visualized using the ECL Chemiluminescence Detection Kit (Bio-Rad, 170–5061) and quantified with Image J software (v.1.8.0).

PKA subunits = test: Expression of PKA subunits (Tpk1, Tpk2, Tpk3, Bcy1) after glucose, Western blot; conditions: for Tpk2/GAPDH / Tpk3/GAPDH: normalized to Tpk1/GAPDH at same glucose; for Bcy1/GAPDH: normalized to Bcy1/GAPDH at 0.05% glucose
Protocol: Cells were grown in 5 ml YPD or selective medium until OD600 of 0.7–1.0. Cells were harvested and lysed in alkaline lysis buffer (2 M NaOH, 8% 2-mercaptoethanol). After centrifugation, the protein pellet was resuspended in 150 μl 2×SDS-sample buffer. Protein samples were separated by 8–15% SDS-PAGE and transferred to PVDF membrane. The blots were probed with primary antibodies followed by incubation with horseradish peroxidase-labelled IgG secondary antibodies. The protein bands were visualized using the ECL Chemiluminescence Detection Kit (Bio-Rad, 170–5061) and quantified with Image J software (v.1.8.0).
Supplementary Fi g . 11 Analysis of PKA subunits subcellular localization, expression and Bcy1 dissociation kinetics. […]
For Supplem ent ar y Fi g. 11 b, dat a r ep res ent m ean s ± SEM; n=3 independent ex perim ents. Tw o -sid ed t-t ests were us ed for statistical

Bcy1 = test: Dissociation of Tpk1, Tpk2, Tpk3 from Bcy1 after glucose, Co-IP; conditions: 2% glucose, 0-30 min
Protocol: Yeast whole cell extract was prepared by vortexing with glass beads and then digested with Micrococcal Nuclease (MNase). Pre-cleared cell lysate was incubated with anti-FLAG M2 agarose for 1 hr at 4 °C. The beads were washed three times with IP washing buffer (40 mM HEPES-KOH, pH7.5, 0.1% NP-40, 10% glycerol, 1 mM PMSF, 350 mM NaCl, 2 μg/ml leupeptin, 1 μg/ml pepstatin A) and boiled in SDS-sample buffer for 5 min. Supernatants from the boiled beads were subjected to SDS-PAGE and Western blots.
Supplementary Fi g . 11 Analysis of PKA subunits subcellular localization, expression and Bcy1 dissociation kinetics. a Subcellul ar localiz ation of Tpk1, Tpk2 and Tp k3. Cells (Tpk1-FLAG, Tpk2- FLAG, Tpk3- F LA G) wer e grown in YP+2% glucos e medium. Th e localization of Tpk1, Tpk2 and Tp k3 was detect ed with ant i-F LAG antibod y. […] Bc y1 was immunoprecipitated from cells (Tpk1- FLAG/Bcy1- M yc, Tpk2- FLAG/Bcy1-M yc, Tpk3- FLAG/Bcy1- M yc) with anti-M yc antibody.
For Supplem ent ar y Fi g. 11 b, dat a r ep res ent m ean s ± SEM; n=3 independent ex perim ents. Tw o -sid ed t-t ests were us ed for statistical […]
(1 picture or pasted object on this page, not shown here)

OC[C@H]1OC(O)[C@H](O)[C@@H](O)[C@@H]1O (stereo partly drawn) [glucose]
Jhd2 phosphorylation in response to glucose (Jhd2 phosphorylation): Jhd2 phosphorylation was elevated when the concentration of glucose was increased from 0.05 to 2% in WT but not in Jhd2-S321A, S340A and tpk2Δ mutants | Tpk2/GAPDH (PKA subunits; 0.05% glucose, replicate 1): 1.627 | Tpk3/GAPDH (PKA subunits; 0.05% glucose, replicate 1): 0.4263 | Tpk2/GAPDH (PKA subunits; 0.05% glucose, replicate 2): 1.616 | Tpk3/GAPDH (PKA subunits; 0.05% glucose, replicate 2): 0.1439 | Tpk2/GAPDH (PKA subunits; 0.05% glucose, replicate 3): 1.728 | Tpk3/GAPDH (PKA subunits; 0.05% glucose, replicate 3): 0.2447 | expression of PKA subunits (PKA subunits; 0.05%, 0.5%, 2% glucose, Western blot): not significantly altered by glucose | Bcy1/GAPDH (PKA subunits; 0.5% glucose, replicate 1): 0.8311 | Bcy1/GAPDH (PKA subunits; 0.5% glucose, replicate 2): 0.7213 | Bcy1/GAPDH (PKA subunits; 0.5% glucose, replicate 3): 1.191 | Tpk2/GAPDH (PKA subunits; 0.5% glucose, replicate 1): 1.363 | Tpk3/GAPDH (PKA subunits; 0.5% glucose, replicate 1): 0.4332 | Tpk2/GAPDH (PKA subunits; 0.5% glucose, replicate 2): 1.712 | Tpk3/GAPDH (PKA subunits; 0.5% glucose, replicate 2): 0.3492 | Tpk2/GAPDH (PKA subunits; 0.5% glucose, replicate 3): 1.416 | Tpk3/GAPDH (PKA subunits; 0.5% glucose, replicate 3): 0.1641 | Bcy1/GAPDH (PKA subunits; 2% glucose, replicate 1): 1.059 | Bcy1/GAPDH (PKA subunits; 2% glucose, replicate 2): 0.8633 | Bcy1/GAPDH (PKA subunits; 2% glucose, replicate 3): 0.977 | Tpk2/GAPDH (PKA subunits; 2% glucose, replicate 1): 1.492 | Tpk3/GAPDH (PKA subunits; 2% glucose, replicate 1): 0.565 | Tpk2/GAPDH (PKA subunits; 2% glucose, replicate 2): 1.634 | Tpk3/GAPDH (PKA subunits; 2% glucose, replicate 2): 0.1809 | Tpk2/GAPDH (PKA subunits; 2% glucose, replicate 3): 1.419 | Tpk3/GAPDH (PKA subunits; 2% glucose, replicate 3): 0.2075 | dissociation of Tpk2 from Bcy1 compared with Tpk1 and Tpk3 (Bcy1): Tpk2 dissociated with Bcy1 with a faster kinetics than Tpk1 and Tpk3
